{"source": "patent US9341627B2", "about": "“Protein structural biomarkers to guide targeted chemotherapies” (priority 2009, dated 2016)", "key": {"[1]": {"tested_on": "Eg5 E116, D130 and A133 mutants", "conditions": "all E116, D130 and A133 mutants, to varying degrees", "method": "(§1) Basal ATPase activities were measured with a coupled enzymatic assay as previously described (29) with 5 μM motor protein and 1 mM MgATP in a SpectraMax 2E spectrophotometer for high-throughput kinetic measurements as previously described (30). […] Reactions used for calculation of the IC50 values contained between 5 and 22.5 mM NaCl. Data were reproducible with protein samples purified from differing batches of cultured cells from two different laboratories."}, "[2]": {"target": "T1, wildtype Eg5 kinesin motor domain (Homo sapiens, UniProt P52732)", "T1 sequence (P52732 1-370)": "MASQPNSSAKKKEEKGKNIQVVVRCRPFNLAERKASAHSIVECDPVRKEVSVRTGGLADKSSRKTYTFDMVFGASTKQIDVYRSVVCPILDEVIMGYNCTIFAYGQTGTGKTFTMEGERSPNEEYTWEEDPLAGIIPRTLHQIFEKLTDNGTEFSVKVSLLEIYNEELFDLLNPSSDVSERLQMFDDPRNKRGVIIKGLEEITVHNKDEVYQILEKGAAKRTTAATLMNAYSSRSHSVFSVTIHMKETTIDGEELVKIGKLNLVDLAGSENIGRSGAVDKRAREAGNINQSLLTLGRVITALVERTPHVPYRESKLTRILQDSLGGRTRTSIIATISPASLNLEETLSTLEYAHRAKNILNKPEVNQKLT", "assay": "In vitro basal ATPase assay (coupled enzymatic), wildtype Eg5", "type": "biochemical", "conditions": "5 μM motor protein, 1 mM MgATP, 5-22.5 mM NaCl, read-out: IC50, basal ATP hydrolysis", "method": "as §1"}}, "data": [{"smiles": "N[C@@H](CSC(c1ccccc1)(c1ccccc1)c1ccccc1)C(=O)O", "note": "[STC, S-trityl-L-cysteine]", "values": [{"measurement": "sensitivity of mutants to inhibitor", "setting": "[1]", "result": "reduced sensitivity"}]}, {"smiles": "CCOC(=O)C1=C(C)NC(=S)NC1c1cccc(O)c1", "note": "(centres unmarked) [monastrol]", "values": [{"measurement": "IC50", "setting": "[2]", "result": 8, "unit": "µM"}]}]}
